Values after ≈ are worked out from the molar mass of the structure shown. Where two headings read alike, the source gives them in different places. Marks after values point to notes of the source that are not given here.
Tests used:
[1] = Aqueous solubility, pION method
[2] = HPLC-based lipophilicity (Log D7.4); conditions: for chromatographic logD: pH 7.4
hP2Y14R = biological target: T1, hP2Y14R (Homo sapiens, UniProt Q15391); test: Inhibition of fluorescent antagonist binding in whole hP2Y14R-expressing CHO cells (flow cytometry)
T1 construct: expressed in transfected cells; host or cells: CHO cells
T1 sequence (Q15391 1-338): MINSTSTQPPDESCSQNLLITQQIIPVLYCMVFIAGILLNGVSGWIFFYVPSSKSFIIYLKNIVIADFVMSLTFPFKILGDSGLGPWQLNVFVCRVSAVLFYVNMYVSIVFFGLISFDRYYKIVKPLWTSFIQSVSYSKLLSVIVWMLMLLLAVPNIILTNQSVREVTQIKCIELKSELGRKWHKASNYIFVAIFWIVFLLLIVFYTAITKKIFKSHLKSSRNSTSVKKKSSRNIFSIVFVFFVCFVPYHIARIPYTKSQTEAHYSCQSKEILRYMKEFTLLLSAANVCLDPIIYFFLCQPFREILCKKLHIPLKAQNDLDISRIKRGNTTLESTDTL

[3] = Table 2, whole hP2Y14R-CHO cells, 20 nM fluorescent antagonist 3, mean+SEM, n = 3-6, read-out: IC50

For `O=C(O)c1cc(-c2ccc([C@@]3(O)C[C@H]4CC[C@@H]3CN4)cc2)c2ccc(-c3ccc(C(F)(F)F)cc3)cc2c1` [Compound 125b], the “Solubility (ug/mL) pH 4” value [1] was 1.55 ± 0.11 ug/mL and the “Solubility (ug/mL) pH 7.4” value [1] was 0.74 ± 0.06 ug/mL.
With `CC(=O)N1C[C@H]2C[C@@H]1C[C@@H]2c1ccc(-c2cc(C(=O)O)cc3cc(-c4ccc(C(F)(F)F)cc4)ccc23)cc1` (racemic) [Compound 113, rac-4-(4-((1S,4S,5S)-2-Acetyl-2-azabicyclo[2.2.1]heptan-5-yl)phenyl)-7-(4-(trifluoromethyl)phenyl)-2-naphthoic acid] the solubility ([1]; pH 4, aqueous buffer) was 0.13 ± 0.04 µg/mL (≈ 0.245 µM), the solubility ([1]; pH 7.4, aqueous buffer) was 2.53 ± 0.43 µg/mL (≈ 4.78 µM) and the chromatographic logD [2] was 0.921 ± 0.034. The IC50 (hP2Y14R; [3]) was 0.0204 ± 0.0024 µM.
For `O=C(O)c1cc(-c2ccc([C@]3(O)C[C@H]4CC[C@@H]3CN4)cc2)c2ccc(-c3ccc(C(F)(F)F)cc3)cc2c1` [Compound 125a], the “Solubility (ug/mL) pH 4” value [1] was 2.66 ± 0.29 ug/mL, the “Solubility (ug/mL) pH 7.4” value [1] was 2.19 ± 0.10 ug/mL and the “Log D7.4” value ([2]; HPLC-based lipophilicity) was 0.74 ± 0.05.
With `O=C(O)c1cc(-c2ccc([C@]3(O)C[C@H]4CC[C@@H](C3)N4)cc2)c2ccc(-c3ccc(C(F)(F)F)cc3)cc2c1` [Compound 127, 4-(4-((1R,3r,5S)-3-Hydroxy-8-azabicyclo[3.2.1]octan-3-yl)phenyl)-7-(4-(trifluoromethyl)phenyl)-2-naphthoic acid] the chromatographic logD [2] was 1.16 ± 0.08.
`O=C(O)c1cc(-c2ccc(C3(O)C4CCC3CN(Cc3ccccc3)C4)cc2)c2ccc(-c3ccc(C(F)(F)F)cc3)cc2c1` (mixture of isomers) [Compound 130, 4-(4-((1R,5S,8r)-3-Benzyl-8-hydroxy-3-azabicyclo[3.2.1]octan-8-yl)phenyl)-7-(4-(trifluoromethyl)phenyl)-2-naphthoic acid] showed a chromatographic logD [2] of 3.26 ± 0.01.
For `CC1CC(c2ccc(-c3cc(C(=O)O)cc4cc(-c5ccc(C(F)(F)F)cc5)ccc34)cc2)CCN1` (stereo not shown) [Compound 107, 4-(4-(2-Methylpiperidin-4-yl)phenyl)-7-(4-(trifluoromethyl)phenyl)-2-naphthoic acid], the “Solubility (ug/mL) pH 4” value [1] was 0.31 ± 0.04 ug/mL, the “Solubility (ug/mL) pH 7.4” value [1] was 0.16 ± 0.03 ug/mL and the chromatographic logD [2] was 2.05 ± 0.11. It also gave an IC50 (hP2Y14R; [3]) of 0.0178 ± 0.002 µM.
For `O=C(O)c1cc(-c2ccc([C@H]3C[C@@H]4CN[C@H]3C4)cc2)c2ccc(-c3ccc(C(F)(F)F)cc3)cc2c1` [Compound 117, 4-(4-((1S,4S,6R)-2-Azabicyclo[2.2.1]heptan-6-yl)phenyl)-7-(4-(trifluoromethyl)phenyl)-2-naphthoic acid], the chromatographic logD [2] was 2.11 ± 0.06 and the IC50 (hP2Y14R; Table 6, fluorescent hP2Y14R antagonist (3), read-out: hP2Y14R, IC50) was 0.0259 ± 0.0076 µM.
For `N[C@@H]1C[C@H](CO)C[C@H]1c1ccc(-c2cc(C(=O)O)cc3cc(-c4ccc(C(F)(F)F)cc4)ccc23)cc1` [Compound 136, 4-(4-((1S,2R,4R)-2-Amino-4-(hydroxymethyl)cyclopentyl)phenyl)-7-(4-(trifluoromethyl)phenyl)-2-naphthoic acid], the “Solubility (ug/mL) pH 4” value [1] was 3.74 ± 0.09 ug/mL, the “Solubility (ug/mL) pH 7.4” value [1] was 0.93 ± 0.20 ug/mL and the chromatographic logD [2] was 1.06 ± 0.05. For the same compound, the IC50 (hP2Y14R; [3]) was 0.1 ± 0.019 µM.
In the case of `CN1C[C@H]2CC[C@@H](C1)[C@]2(O)c1ccc(-c2cc(C(=O)O)cc3cc(-c4ccc(C(F)(F)F)cc4)ccc23)cc1` [Compound 132, 4-(4-((1R,5S,8r)-8-Hydroxy-3-methyl-3-azabicyclo[3.2.1]octan-8-yl)phenyl)-7-(4-(trifluoromethyl)phenyl)-2-naphthoic acid], the solubility ([1]; pH 4, aqueous buffer) is reported as 1.81 ± 0.05 µg/mL (≈ 3.4 µM), the solubility ([1]; pH 7.4, aqueous buffer) is reported as 0.88 ± 0.09 µg/mL (≈ 1.66 µM) and the chromatographic logD [2] is reported as 1.37 ± 0.02. For the same compound, the IC50 (hP2Y14R) was 0.0446 ± 0.0017 µM.
In the case of `N[C@H]1C[C@@H](C(=O)O)[C@H](c2ccc(-c3cc(C(=O)O)cc4cc(-c5ccc(C(F)(F)F)cc5)ccc34)cc2)C1` [Compound 139, 4-(4-((1R,2R,4R)-4-Amino-2-carboxycyclopentyl)phenyl)-7-(4-(trifluoromethyl)phenyl)-2-naphthoic acid], the “Solubility (ug/mL) pH 4” value [1] is reported as 1.05 ± 0.20 ug/mL, the “Solubility (ug/mL) pH 7.4” value [1] is reported as 5.52 ± 0.21 ug/mL and the “Log D7.4” value ([2]; HPLC-based lipophilicity) is reported as −0.568 ± 0.038. The IC50 (hP2Y14R; [3]) was 0.102 ± 0.025 µM.
In the case of `O=C(O)c1cc(-c2ccc(C34CCNCC3C4(F)F)cc2)c2ccc(-c3ccc(C(F)(F)F)cc3)cc2c1` (stereo not shown) [Compound 109, 4-(4-(7,7-Difluoro-3-azabicyclo[4.1.0]heptan-6-yl)phenyl)-7-(4-(trifluoromethyl)phenyl)-2-naphthoic acid], the “Solubility (ug/mL) pH 4” value [1] is reported as 1.13 ± 0.34 ug/mL, the “Solubility (ug/mL) pH 7.4” value [1] is reported as 0.25 ± 0.01 ug/mL and the chromatographic logD [2] is reported as 2.71 ± 0.33. For the same compound, the IC50 (hP2Y14R; [3]) was 0.211 ± 0.036 µM.
Compound `O=C(O)c1cc(-c2ccc([C@@]34CCNC[C@@H]3C4)cc2)c2ccc(-c3ccc(C(F)(F)F)cc3)cc2c1` (racemic) [Compound 108, 4-(4-(3-Azabicyclo[4.1.0]heptan-6-yl)phenyl)-7-(4-(trifluoromethyl)phenyl)-2-naphthoic acid] has a solubility ([1]; pH 4, aqueous buffer) of 1.32 ± 0.17 µg/mL (≈ 2.71 µM), a solubility ([1]; pH 7.4, aqueous buffer) of 0.17 ± 0.01 µg/mL (≈ 0.349 µM) and a chromatographic logD [2] of 2.44 ± 0.06. For the same compound, the IC50 (hP2Y14R) was 0.0455 ± 0.0072 µM.
`O=C(O)c1cc(-c2ccc([C@H]3C[C@H]4C[C@@H]3CN4)cc2)c2ccc(-c3ccc(C(F)(F)F)cc3)cc2c1` (racemic) [Compound 112, rac-4-(4-((1S,4S,5S)-2-Azabicyclo[2.2.1]heptan-5-yl)phenyl)-7-(4-(trifluoromethyl)phenyl)-2-naphthoic acid] gave a solubility ([1]; pH 7.4, aqueous buffer) of 0.47 ± 0.06 µg/mL (≈ 0.964 µM), a chromatographic logD [2] of 1.95 ± 0.01 and an IC50 (hP2Y14R) of 0.0059 ± 0.0007 µM.
For `O=C(O)c1cc(-c2ccc(C3=CC4CCC(C3)N4)cc2)c2ccc(-c3ccc(C(F)(F)F)cc3)cc2c1` (stereo not shown) [Compound 128, 4-(4-(8-Azabicyclo[3.2.1]oct-2-en-3-yl)phenyl)-7-(4-(trifluoromethyl)phenyl)-2-naphthoic acid], the “Solubility (ug/mL) pH 4” value [1] was 2.36 ± 0.01 ug/mL, the “Solubility (ug/mL) pH 7.4” value [1] was 0.35 ± 0.04 ug/mL and the chromatographic logD [2] was 2.33 ± 0.04.
In the case of `O=C(O)c1cc(-c2ccc(C3CC4CCC3CN4)cc2)c2ccc(-c3ccc(C(F)(F)F)cc3)cc2c1` (racemic) [Compound 126], the “Solubility (ug/mL) pH 4” value [1] is reported as 0.80 ± 0.05 ug/mL, the “Solubility (ug/mL) pH 7.4” value [1] is reported as 0.49 ± 0.06 ug/mL and the chromatographic logD [2] is reported as 1.74 ± 0.02.
`O=C(O)c1cc(-c2ccc(C3C4CCC3CNC4)cc2)c2ccc(-c3ccc(C(F)(F)F)cc3)cc2c1` (stereo not shown) [Compound 133, 4-(4-(3-Azabicyclo[3.2.1]octan-8-yl)phenyl)-7-(4-(trifluoromethyl)phenyl)-2-naphthoic acid] showed a solubility ([1]; pH 4, aqueous buffer) of 0.32 ± 0.01 µg/mL (≈ 0.638 µM), a solubility ([1]; pH 7.4, aqueous buffer) of 0.16 ± 0.01 µg/mL (≈ 0.319 µM) and a chromatographic logD [2] of 2.97 ± 0.02. For the same compound, the IC50 (hP2Y14R) was 0.696 ± 0.1 µM.
`O=C(O)c1cc(-c2ccc(C3CCNC3)cc2)c2ccc(-c3ccc(C(F)(F)F)cc3)cc2c1` (racemic) [Compound 105, 4-(4-(Pyrrolidin-3-yl)phenyl)-7-(4-(trifluoromethyl)phenyl)-2-naphthoic acid] gave a chromatographic logD [2] of 1.89 ± 0.07.
For `O=C(O)c1cc(-c2ccc(C3C4CCC3CNC4)cc2)c2ccc(-c3ccc(C(F)(F)F)cc3)cc2c1` (stereo not shown) [Compound 129, 4-(4-(3-Azabicyclo[3.2.1]octan-8-yl)phenyl)-7-(4-(trifluoromethyl)phenyl)-2-naphthoic acid], the “Solubility (ug/mL) pH 4” value [1] was 0.38 ± 0.04 ug/mL, the “Solubility (ug/mL) pH 7.4” value [1] was 0.13 ± 0.00 ug/mL and the “Log D7.4” value ([2]; calculated from retention factor difference between ligands and 1 (k = 3.41)) was 2.33 ± 0.09^f. For the same compound, the IC50 (hP2Y14R; [3]) was 0.0383 ± 0.002 µM.
For `CC1CNCCC1c1ccc(-c2cc(C(=O)O)cc3cc(-c4ccc(C(F)(F)F)cc4)ccc23)cc1` (mixture of isomers) [Compound 106, 4-(4-(3-Methylpiperidin-4-yl)phenyl)-7-(4-(trifluoromethyl)phenyl)-2-naphthoic acid], the “Solubility (ug/mL) pH 4” value [1] was 1.36 ± 0.21 ug/mL, the “Solubility (ug/mL) pH 7.4” value [1] was 0.03 ± 0.02 ug/mL and the chromatographic logD [2] was 2.79 ± 0.09. The IC50 (hP2Y14R; [3]) was 0.0209 ± 0.0036 µM.
For `N[C@@H]1C[C@H](C(=O)O)C[C@H]1c1ccc(-c2cc(C(=O)O)cc3cc(-c4ccc(C(F)(F)F)cc4)ccc23)cc1` [Compound 140, 4-(4-((1S,2R,4R)-2-Amino-4-carboxycyclopentyl)phenyl)-7-(4-(trifluoromethyl)phenyl)-2-naphthoic acid], the “Solubility (ug/mL) pH 4” value [1] was 0.34 ± 0.07 ug/mL, the “Solubility (ug/mL) pH 7.4” value [1] was 3.92 ± 0.10 ug/mL and the “Log D7.4” value ([2]; HPLC-based lipophilicity) was −0.478 ± 0.050. The IC50 (hP2Y14R; [3]) was 0.165 ± 0.051 µM.
With `O=C(O)c1cc(-c2ccc([C@@H]3CCN[C@@H]4C[C@@H]43)cc2)c2ccc(-c3ccc(C(F)(F)F)cc3)cc2c1` (racemic) [Compound 111, rac-4-(4-((1R,5R,6R)-2-Azabicyclo[4.1.0]heptan-5-yl)phenyl)-7-(4-(trifluoromethyl)phenyl)-2-naphthoic acid] the “Solubility (ug/mL) pH 4” value [1] was 0.24 ± 0.02 ug/mL, the solubility ([1]; pH 7.4, aqueous buffer) was 0.05 ± 0.04 µg/mL (≈ 0.103 µM) and the chromatographic logD [2] was 1.75 ± 0.06. The IC50 (hP2Y14R) was 0.0618 ± 0.0141 µM.
Compound `O=C(O)c1cc(-c2ccc([C@@H]3CCN[C@H]4C[C@H]43)cc2)c2ccc(-c3ccc(C(F)(F)F)cc3)cc2c1` (racemic) [Compound 110, rac-4-(4-((1S,5R,6S)-2-Azabicyclo[4.1.0]heptan-5-yl)phenyl)-7-(4-(trifluoromethyl)phenyl)-2-naphthoic acid] has a solubility ([1]; pH 4, aqueous buffer) of 0.1 ± 0.03 µg/mL (≈ 0.205 µM), a solubility ([1]; pH 7.4, aqueous buffer) of 0.51 ± 0.23 µg/mL (≈ 1.05 µM) and a chromatographic logD [2] of 2.59 ± 0.2. It also gave an IC50 (hP2Y14R) of 0.0424 ± 0.0117 µM.
In the case of `NC1(c2ccc(-c3cc(C(=O)O)cc(-n4cc(-c5ccc(C(F)(F)F)cc5)nn4)c3)cc2)CCC1` [Compound 25, 4′-(1-Aminocyclobutyl)-5-(4-(4-(trifluoromethyl)phenyl)-1H-1,2,3-triazol-1-yl)-[1,1′-biphenyl]-3-carboxylic acid], the IC50 (hP2Y14R; Table 1, fluorescent antagonist 2, hP2Y14R-CHO cells, 3-4 determinations, read-out: IC50, hP2Y14R (μM, mean ± SEM)) is reported as 2 ± 0.18 µM.
Compound `O=C(O)c1cc(-c2ccc(C3(O)CC4(CNC4)C3)cc2)c2ccc(-c3ccc(C(F)(F)F)cc3)cc2c1` [Compound 408, 4-(4-(6-Hydroxy-2-azaspiro[3.3]heptan-6-yl)phenyl)-7-(4-(trifluoromethyl)phenyl)-2-naphthoic acid] has an IC50 (hP2Y14R; Example 5 table, whole cell fluorescent binding assay, read-out: IC50) of 0.0208 ± 0.0056 µM.

Source: patent publication US20240150290A1, “HETEROCYCLIC P2Y14 RECEPTOR ANTAGONISTS” (priority 2021, published 2024)
